SMILES strings stand for the structures. Bounds are passed on as bounds.

One assay has as its target T1, human CB1 receptors (Homo sapiens, UniProt P21554).
T1 construct: expressed in transfected cells; host or cells: CHO cells
Kind of assay: functional cAMP assay, human CB1. The class given is cell-based. The note with it: CHO cells expressing human CB1, cAMP; read-out: human CB1 EC50. The essentials:
(§1)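 Cells are seeded 17-24 h ahead, then preincubated in Krebs Ringer bicarbonate buffer with 1 mM IBMX at 30 °C. Compounds act for 30 min at 30 °C, after which lysis and cAMP detection reagents are added for 2 h at room temperature. Time-resolved FRET gives cAMP content, and EC50 values are fitted from it.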

Another assay concerns the target T2, human CB2 receptors (Homo sapiens, UniProt P34972).
T2 construct: expressed in transfected cells; host or cells: CHO cells
Kind of assay: functional cAMP assay, human CB2. The class given is cell-based. The note with it: CHO cells expressing human CB2, cAMP; read-out: human CB2 EC50. The essentials:
as §1

T1 sequence (P21554 whole entry): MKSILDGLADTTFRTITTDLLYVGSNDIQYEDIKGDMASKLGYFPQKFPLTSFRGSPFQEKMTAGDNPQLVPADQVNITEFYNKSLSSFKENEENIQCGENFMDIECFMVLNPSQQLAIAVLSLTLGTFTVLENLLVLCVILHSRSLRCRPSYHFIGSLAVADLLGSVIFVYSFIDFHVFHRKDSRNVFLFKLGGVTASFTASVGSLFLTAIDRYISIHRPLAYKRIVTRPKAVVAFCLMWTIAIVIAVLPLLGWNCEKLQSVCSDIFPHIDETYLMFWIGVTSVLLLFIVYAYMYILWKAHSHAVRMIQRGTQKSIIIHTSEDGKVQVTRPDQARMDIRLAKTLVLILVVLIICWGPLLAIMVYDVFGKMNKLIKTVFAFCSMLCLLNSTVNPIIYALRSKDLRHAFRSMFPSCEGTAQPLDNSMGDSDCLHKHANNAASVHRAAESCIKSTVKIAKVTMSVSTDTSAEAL
T2 sequence (P34972 whole entry): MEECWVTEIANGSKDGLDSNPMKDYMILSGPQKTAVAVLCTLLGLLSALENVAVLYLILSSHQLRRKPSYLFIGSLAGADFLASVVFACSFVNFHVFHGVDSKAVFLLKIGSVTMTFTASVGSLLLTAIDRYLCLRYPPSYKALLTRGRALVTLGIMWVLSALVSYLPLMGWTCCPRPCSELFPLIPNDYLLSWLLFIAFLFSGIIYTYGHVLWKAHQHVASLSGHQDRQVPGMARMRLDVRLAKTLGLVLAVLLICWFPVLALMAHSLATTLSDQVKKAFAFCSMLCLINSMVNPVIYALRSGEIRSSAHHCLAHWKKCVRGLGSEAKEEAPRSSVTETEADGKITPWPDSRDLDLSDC

For the molecule `Cc1noc(Cn2nnc3c(N4CC[C@](C)(O)C4)nc(C(C)(C)C)nc32)n1` [Example 226-a, (S)-1-(5-tert-butyl-3-((3-methyl-1,2,4-oxadiazol-5-yl)methyl)-3H-[1,2,3]triazolo[4,5-d]pyrimidin-7-yl)-3-methylpyrrolidin-3-ol], the EC50 is over 10000 nM on human CB1 receptors and 57 nM at human CB2 receptors.

For `Cc1noc(Cn2nnc3c(N4CC[C@@](C)(O)C4)nc(C(C)(C)C)nc32)n1` [Example 226-b, (R)-1-(5-tert-butyl-3-((3-methyl-1,2,4-oxadiazol-5-yl)methyl)-3H-[1,2,3]triazolo[4,5-d]pyrimidin-7-yl)-3-methylpyrrolidin-3-ol], the half-maximal effective concentration (EC50) at human CB1 receptors was over 10000 nM; on human CB2 receptors, 233 nM.

In the case of `Cn1nnnc1Cn1nnc2c(N3CC[C@](C)(O)C3)nc(C(C)(C)C)nc21` [Example 227-a, (S)-1-(5-tert-butyl-3-((1-methyl-1H-tetrazol-5-yl)methyl)-3H-[1,2,3]triazolo[4,5-d]pyrimidin-7-yl)-3-methylpyrrolidin-3-ol], the concentration giving a half-maximal response (EC50) at human CB1 receptors is over 10000 nM; on human CB2 receptors, 18.7 nM.

On to `Cn1nnnc1Cn1nnc2c(N3CC[C@@](C)(O)C3)nc(C(C)(C)C)nc21` [Example 227-b, (R)-1-(5-tert-butyl-3-((1-methyl-1H-tetrazol-5-yl)methyl)-3H-[1,2,3]triazolo[4,5-d]pyrimidin-7-yl)-3-methylpyrrolidin-3-ol], for which the concentration for a half-maximal effect (EC50) on human CB1 receptors was over 10000 nM; at human CB2 receptors, 43.5 nM.

Take `Cc1nonc1Cn1nnc2c(N3CC[C@](C)(O)C3)nc(C(C)(C)C)nc21` [Example 228-a, (S)-1-(5-tert-butyl-3-((4-methyl-1,2,5-oxadiazol-3-yl)methyl)-3H-[1,2,3]triazolo[4,5-d]pyrimidin-7-yl)-3-methylpyrrolidin-3-ol]: the concentration giving a half-maximal response (EC50) is over 10000 nM on human CB1 receptors and 1.8 nM on human CB2 receptors.

`Cc1nonc1Cn1nnc2c(N3CC[C@@](C)(O)C3)nc(C(C)(C)C)nc21` [Example 228-b, (R)-1-(5-tert-butyl-3-((4-methyl-1,2,5-oxadiazol-3-yl)methyl)-3H-[1,2,3]triazolo[4,5-d]pyrimidin-7-yl)-3-methylpyrrolidin-3-ol]: the half-maximal effective concentration (EC50) at human CB1 receptors was over 10000 nM; on human CB2 receptors, 3.3 nM.

As to `CC(C)(C)c1nc(N2CC[C@](C)(O)C2)c2nnn(CCC(F)(F)F)c2n1` [Example 229-a, (S)-1-(5-tert-butyl-3-(3,3,3-trifluoropropyl)-3H-[1,2,3]triazolo[4,5-d]pyrimidin-7-yl)-3-methylpyrrolidin-3-ol], the values for the EC50 on human CB1 receptors and at human CB2 receptors were over 10000 nM and 30.4 nM, respectively.

With `CC(C)(C)c1nc(N2CC[C@@](C)(O)C2)c2nnn(CCC(F)(F)F)c2n1` [Example 229-b, (R)-1-(5-tert-butyl-3-(3,3,3-trifluoropropyl)-3H-[1,2,3]triazolo[4,5-d]pyrimidin-7-yl)-3-methylpyrrolidin-3-ol], the results for the EC50 at human CB1 receptors and at human CB2 receptors were over 10000 nM and 37.4 nM, respectively.

Regarding `CC(C)(C)c1nc(N2CC[C@](C)(O)C2)c2nnn(Cc3nnnn3C3CC3)c2n1` [Example 230-a, (S)-1-(5-tert-butyl-3-((1-cyclopropyl-1H-tetrazol-5-yl)methyl)-3H-[1,2,3]triazolo[4,5-d]pyrimidin-7-yl)-3-methylpyrrolidin-3-ol], the EC50 was over 10000 nM at human CB1 receptors and 2.7 nM at human CB2 receptors.

With `CC(C)(C)c1nc(N2CC[C@@](C)(O)C2)c2nnn(Cc3nnnn3C3CC3)c2n1` [Example 230-b, (R)-1-(5-tert-butyl-3-((1-cyclopropyl-1H-tetrazol-5-yl)methyl)-3H-[1,2,3]triazolo[4,5-d]pyrimidin-7-yl)-3-methylpyrrolidin-3-ol], the results for the 50% effective concentration (EC50) at human CB1 receptors and on human CB2 receptors were over 10000 nM and 13.6 nM, respectively.

The values above are taken from patent US8741906B2 (priority 2011, dated 2014).
